Tests used:
[1] = tested on: HT1080 cells
Experimental: FIG. 7A and FIG. 7B depict the effect of photosensitive particles and radionuclides on cell viability. […] The control group was considered to be 100% viable. […] HT1080 cells were used and the values are means±s.e.m. (experiments for each group were run in triplicates).
The MTS (3-(4,5-di methylthiazol-2-yl)-5-(3-carboxymethoxyphenyl)-2-(4-sulfophenyl)-2H-tetrazolium) assay, a colorimetric assay for assessing cell viability was performed using the CellTiter 96® AQueous Non-Radioactive Cell Proliferation Assay kit (Promega Co.) according to the manufacturer's instructions.

[2] = tested on: HT1080 cells; test: Lipid peroxidation assay (BODIPY 581/591 C11); format: cell-based
Experimental: BODIPY® 581i591 C11 reagent (Life Technologies Inc.) was used to quantitatively determine the degree of lipid peroxidation. It is a ratiometric fluorescence technique that relies on oxidation of lipids to shift fluorescence emission peak from 590 nm to 510 nm. […] All the compounds were incubated for 6 h at 37° C. Finally, the BODIPY-based dye (10 μM) was added and incubated for 30 min at 37° C. After washing the cells with PBS three times, the plate was analysed using a Synergy HT multimode plate reader (BioTek Instruments Inc., Winooski, USA) with excitation/emission of 581/591 nm for the reduced dye and at 488/510 nm for the oxidized dye. The ratio of the fluorescence intensities at 590/510 nm was plotted to derive the ratio of fluorescence change.

[3] = tested on: mitochondrial membrane potential; test: Mitochondrial membrane potential assay (Mitotracker Green); format: cell-based; conditions: coincubated with FDG
Experimental: For measuring mitochondrial membrane potential, Mitotracker Green (Life Technologies Inc.) was used according to manufacturer's instructions. Staurosporine (2 μM; Sigma Aldrich Co.) was used as positive control. Fluorescence readout was performed using a plate reader using excitation/emission wavelengths of 490/516 nm.

[4] = tested on: HT1080 tumors; format: in vivo, mice; conditions: i.v. with FDG, monitored 15 days
Source text: Tumor volume was registered every alternate day for 15 days.

[5] = tested on: cells; conditions: literature; cited from earlier work
[6] = tested on: HT1080 cell line; conditions: expected result of planned assay
[7] = tested on: 4T1 and HT1080 tumor; conditions: mouse, in vivo
Source text: The studies were commenced when tumor volume reached 500 mm^3. […] The animals were euthanized subsequently and major organs dissected and imaged in the same channel. Image J was used to quantitate fluorescence intensity by drawing regions of interest encompassing entire organs.

[8] = tested on: HT1080 tumor; conditions: mouse, in vivo

## Titanocene dichloride [Tc]
[1]
  concentration that did not induce apoptosis: < 10 µg/mL
[2]; with FDG
  peroxidation of cellular lipids: induced significant peroxidation and degradation of cellular lipids
[3]
  mitochondrial membrane potential: significant decrease in mitochondrial membrane potential
[4]
  tumor volume, fold smaller compared to controls: four-fold
[5]
  concentration known to induce apoptosis in cells: ≥ 12.5 µg/mL
[6]
  LD50 Tc concentration, fold lower with CR than without FDG: at least 4 fold

## titanium dioxide [TiO2]
[1]
  concentration at which TiO2 particles did not induce apoptosis: < 4 pg/mL
  concentration that did not induce apoptosis: < 4 µg/mL

## Cc1c(C)c2c(c(C)c1O)CCC(C)(C(=O)O)O2 (centres unmarked) [Trolox, reference compound]
[2]; added to Tc and FDG
  effect of peroxyl radical scavenger on lipid peroxidation: adequately inhibited this process

## Tf: transferrin, tumor targeting protein; Alexa 680 labeled for biodistribution
[7]
  tumor:muscle ratio: 5.5
[8]
  tumor to muscle ratio: 5.3
